Data from paper PMC10077475, “DG9-conjugated morpholino rescues phenotype in SMA mice by reaching the CNS via a subcutaneous administration” (JCI Insight, 2023).

Tests used:
[1] = test system: severe SMA mouse model; assay: Whole-body plethysmography, breathing function at PD7; format: in vivo; details: for respiratory parameters under hypoxia (11% O2): 40 mg/kg s.c. at PD0, PD7
Excerpt: The majority of patients with SMA suffer from compromised breathing functions and rely on an external source of breathing support. To evaluate the effects of DG9-PMO treatment on breathing function, we performed whole-body plethysmography recordings at PD7 under normoxic (21% O2) and hypoxic (11% O2) conditions (Figure 3A). […] The NT mice on the other hand had slow, irregular breathing denoted by a higher coefficient of variation of frequency (CV, a measure of relative variability) and marked apneas (absence of airflow/pressure changes for a period equivalent to or greater than 2 complete respiratory cycles) (Figure 3, B and F).
Measurements were performed in whole-body, cylindrical, transparent, plexiglass plethysmographs (Validyne Engineering) that had 1 inflow and 2 outflow ports for the continuous delivery of fresh room air and removal of expired carbon dioxide ([75], [76]). […] The gas was mixed with gas mixer (GSM-3, CWE), delivered from compressed pure oxygen and pure nitrogen cannisters, being monitored using 0–200 mL/min gas regulators (Porter Instrument Company). […] For PD30, the plethysmograph was recorded at RT of around 22°C. Pressure changes were detected with a pressure transducer (DP 103; Validyne) and signal conditioner (CD-15; Validyne), recorded with data acquisition software (Axoscope) via analog-digital board (Digidata 1322A). […] VT and fR were measured with blood pressure settings using Labchart 8 (ADInstruments). Threshold levels for bursts were set, and bursts were then automatically detected so that frequency (calculated from cycle duration) and VT (calculated from maximal pressure minus minimal pressure) values were interpreted. […]
Respiratory parameters were calculated over an average of 1 minute of continuous plethysmography recordings. […]

[2] = test system: severe SMA mouse model; assay: Muscle pathology by H&E staining (myofiber size, centrally nucleated fibers); format: in vivo
Excerpt: Atrophic musculature is a classical characteristic feature of SMA with diminished skeletal muscle fiber size. To determine the treatment effects on muscle pathology, we assessed the physiology and architecture of the myofibers of 2 affected muscle groups, the quadriceps and intercostal muscles, as well as the sparingly affected diaphragm at PD7 and PD30 ([42], [43]). We quantified the cross-sectional area (CSA), the minimal Feret’s diameter, and centrally nucleated fibers, a hallmark of pathological muscle degeneration/regeneration cycle, for at least 500 myofibers per muscle for each treatment using hematoxylin and eosin (H&E) staining at PD7 and PD30 (Figure 4, A and B, and Supplemental Figures 5 and 6). […] The effect of DG9-PMO persisted at PD30 (Supplemental Figure 6).
Cryosections (7 μm) of the quadriceps muscle, diaphragm, and intercostal muscle were stained with Meyer’s H&E reagents (Electron Microscopy Reagents) ([70]). For the centrally nucleated fibers and myofiber size, 500–800 were randomly selected per muscle per treatment. The CSA and minimal Feret’s diameter were quantified using ImageJ (NIH). All H&E analyses were performed in a blinded fashion.

Molecule	respiratory parameters under hypoxia (11% O2) [1]	myofiber size at PD30 compared with DG9-PMO ([2]; 40 mg/kg s.c. at PD0, all 3 tissue types)	respiratory phenotype under normoxic conditions (21% O2) ([1]; 40 mg/kg s.c. at PD0, PD7, majority of the mice)	centrally nucleated fibers ([2]; 40 mg/kg s.c. at PD0, PD7)	Feret's diameter and CSA of myofibers at PD7 compared with NT control ([2]; 40 mg/kg s.c. at PD0, quadriceps, diaphragm, intercostal muscle)
unconjugated PMO: PMO targeting ISS-N1 intron 7 (5′ TCACTTTCATAATGCTGG 3′), purchased from Gene Tools LLC (all phosphorodiamidate morpholino (PMO)) [reference compound]	slow, weak, and irregular breathing when compared with the Hets	significantly smaller myofibers			
CC(=O)N[C@@H](Cc1ccc(O)cc1)C(=O)N[C@@H](C)C(=O)N[C@H](CCCNC(=N)N)C(=O)N[C@H](C(=O)N[C@@H](CCCNC(=N)N)C(=O)N[C@@H](CCCNC(=N)N)C(=O)N[C@H](CCCNC(=N)N)C(=O)NCC(=O)N1CCC[C@H]1C(=O)N[C@@H](CCCNC(=N)N)C(=O)NCC(=O)N[C@@H](Cc1ccc(O)cc1)C(=O)N[C@@H](C)C(=O)N[C@H](CCCNC(=N)N)C(=O)N[C@H](C(=O)N[C@@H](CCCNC(=N)N)C(=O)N[C@@H](CCCNC(=N)N)C(=O)N[C@H](CCCNC(=N)N)C(=O)NCC(=O)N1CCC[C@H]1C(=O)N[C@@H](CCCNC(=N)N)C(=O)N[C@H](CCCNC(=N)N)C(=O)N1C[C@@H](COP(=O)(N(C)C)N2C[C@@H](COP(=O)(N(C)C)N3C[C@@H](COP(=O)(N(C)C)N4C[C@@H](COP(=O)(N(C)C)N5C[C@@H](COP(=O)(N(C)C)N6C[C@@H](COP(=O)(N(C)C)N7C[C@@H](COP(=O)(N(C)C)N8C[C@@H](COP(=O)(N(C)C)N9C[C@@H](COP(=O)(N(C)C)N%10C[C@@H](COP(=O)(N(C)C)N%11C[C@@H](COP(=O)(N(C)C)N%12C[C@@H](COP(=O)(N(C)C)N%13C[C@@H](COP(=O)(N(C)C)N%14C[C@@H](COP(=O)(N(C)C)N%15C[C@@H](COP(=O)(N(C)C)N%16C[C@@H](COP(=O)(N(C)C)N%17C[C@@H](COP(=O)(N(C)C)N%18C[C@@H](COP(=O)(N(C)C)N%19CCC(C(N)=O)CC%19)O[C@@H](n%19cc(C)c(=O)[nH]c%19=O)C%18)O[C@@H](n%18ccc(N)nc%18=O)C%17)O[C@@H](n%17cnc%18c(N)ncnc%18%17)C%16)O[C@@H](n%16ccc(N)nc%16=O)C%15)O[C@@H](n%15cc(C)c(=O)[nH]c%15=O)C%14)O[C@@H](n%14cc(C)c(=O)[nH]c%14=O)C%13)O[C@@H](n%13cc(C)c(=O)[nH]c%13=O)C%12)O[C@@H](n%12ccc(N)nc%12=O)C%11)O[C@@H](n%11cnc%12c(N)ncnc%12%11)C%10)O[C@@H](n%10cc(C)c(=O)[nH]c%10=O)C9)O[C@@H](n9cnc%10c(N)ncnc%109)C8)O[C@@H](n8cnc9c(N)ncnc98)C7)O[C@@H](n7cc(C)c(=O)[nH]c7=O)C6)O[C@@H](n6cnc7c(=O)[nH]c(N)nc76)C5)O[C@@H](n5ccc(N)nc5=O)C4)O[C@@H](n4cc(C)c(=O)[nH]c4=O)C3)O[C@@H](n3cnc4c(=O)[nH]c(N)nc43)C2)O[C@@H](n2cnc3c(=O)[nH]c(N)nc32)C1)C(C)C)C(C)C (stereo partly drawn) [DG9-PMO]	increase in the respiratory parameters fR, VE, and VT relative to normoxia		did not exhibit any respiratory phenotype	significant decrease in the percentage of centrally nucleated fibers	significantly larger in all 3 muscle groups
